These results are taken from ChEMBL document CHEMBL1201862, “PubChem BioAssay data set” (2004).

One experiment has as its target Prothrombin (Homo sapiens, UniProt P00734). Description: Thrombin 1536 HTS Dose Response Confirmation. [Related pubchem assays: 1046 (Thrombin 1536 HTS; hits were confirmed in this assay)]. Format: functional.
Another experiment has as its target SUMO-activating enzyme (Homo sapiens, UniProt Q9UBT2). Description: SUMOylation inhibitor hit validation, confirmation, SUMOylation inhibitor project, biochemical, AlphaScreen (AID 2018). It counts as functional. (In Alpha technology, singlet oxygen from a donor bead excites a nearby acceptor bead.)
The next experiment deals with T1, CAAX prenyl protease 2 (Saccharomyces cerevisiae S288c, UniProt Q03530).
T1 sequence (Q03530 whole entry): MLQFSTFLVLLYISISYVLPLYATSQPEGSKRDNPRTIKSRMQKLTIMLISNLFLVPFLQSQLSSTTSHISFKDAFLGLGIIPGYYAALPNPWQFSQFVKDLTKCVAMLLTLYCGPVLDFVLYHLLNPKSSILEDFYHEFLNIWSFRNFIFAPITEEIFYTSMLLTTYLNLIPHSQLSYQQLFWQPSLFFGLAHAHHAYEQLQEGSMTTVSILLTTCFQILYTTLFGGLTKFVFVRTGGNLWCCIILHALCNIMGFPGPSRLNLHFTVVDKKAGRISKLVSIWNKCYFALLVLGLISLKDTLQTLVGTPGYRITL
Format: biochemical.

In a further experiment the target is Trypsin (Sus scrofa, UniProt P00761). Description: porcine trypsin inhibitors, dose response, selectivity assay for Rce1 protease inhibitor project, biochemical, quenched peptide fluorescence, cherry-pick (AID 488789).
In experiment [1] the target is T2, Short transient receptor potential channel 4 (Mus musculus, UniProt Q9QUQ5).
T2 sequence (Q9QUQ5 whole entry): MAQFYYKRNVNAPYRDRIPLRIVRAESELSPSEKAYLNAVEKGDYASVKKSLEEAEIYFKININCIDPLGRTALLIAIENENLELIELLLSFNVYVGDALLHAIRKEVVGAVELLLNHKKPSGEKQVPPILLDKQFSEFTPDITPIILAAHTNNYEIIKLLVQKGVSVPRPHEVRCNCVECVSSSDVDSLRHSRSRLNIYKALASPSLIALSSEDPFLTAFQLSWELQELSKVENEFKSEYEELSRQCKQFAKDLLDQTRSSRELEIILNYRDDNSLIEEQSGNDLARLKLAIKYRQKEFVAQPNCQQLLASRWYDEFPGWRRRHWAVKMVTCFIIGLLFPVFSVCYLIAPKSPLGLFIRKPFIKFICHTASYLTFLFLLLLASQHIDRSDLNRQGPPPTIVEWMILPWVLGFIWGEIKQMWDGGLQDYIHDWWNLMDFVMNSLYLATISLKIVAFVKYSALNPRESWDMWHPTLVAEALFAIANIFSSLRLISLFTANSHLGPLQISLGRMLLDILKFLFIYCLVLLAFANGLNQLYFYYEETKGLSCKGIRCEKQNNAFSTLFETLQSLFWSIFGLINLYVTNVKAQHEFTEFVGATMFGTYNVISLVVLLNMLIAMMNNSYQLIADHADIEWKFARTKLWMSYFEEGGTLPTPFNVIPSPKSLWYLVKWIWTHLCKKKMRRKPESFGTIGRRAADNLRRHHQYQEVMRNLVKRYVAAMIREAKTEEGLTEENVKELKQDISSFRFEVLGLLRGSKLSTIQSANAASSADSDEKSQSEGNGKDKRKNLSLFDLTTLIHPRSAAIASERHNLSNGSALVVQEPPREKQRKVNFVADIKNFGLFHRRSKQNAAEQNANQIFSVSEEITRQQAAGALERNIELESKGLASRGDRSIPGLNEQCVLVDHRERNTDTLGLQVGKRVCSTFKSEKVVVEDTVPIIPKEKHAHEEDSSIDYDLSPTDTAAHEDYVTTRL
Description: mouse TRPC4 channel activators, dose response, cell-based, HEK293 TRPC4/mu-opioid, Fluo-4 calcium (AID 434937). Format: functional.

The target in experiment [2] is T2, Short transient receptor potential channel 4. Nature of the experiment: TRPC4 positive allosteric modulators, dose response, cell-based, HEK293 TRPC4/mu-opioid, Fluo-4 calcium, EC20 DAMGO (AID 434941). Format: functional.
For experiment [3], the target named is DNA damage-inducible transcript 3 protein (Mus musculus, UniProt P35639). Format: functional, Cricetulus griseus.
The target of experiment [4] is DNA dC->dU-editing enzyme APOBEC-3G (Homo sapiens, UniProt Q9HC16). Format: functional.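 Also: Dose-response counterscreen measuring inhibition of APOBEC3G DNA deaminase activity, run while confirming APOBEC3A inhibitors.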
Experiment [5] concerns the target DNA dC->dU-editing enzyme APOBEC-3A (Homo sapiens, UniProt P31941). Nature of the experiment: Dose Response confirmation of small molecule APOBEC3A DNA Deaminase Inhibitors via a fluorescence-based single-stranded DNA deaminase assay. [Related pubchem assays (depositor defined):AID493011, AID493024]. It counts as functional.
Experiment [6] has as its target T3, Carboxy-terminal domain RNA polymerase II polypeptide A small phosphatase 1 (Homo sapiens, UniProt Q9GZU7).
T3 sequence (Q9GZU7 whole entry): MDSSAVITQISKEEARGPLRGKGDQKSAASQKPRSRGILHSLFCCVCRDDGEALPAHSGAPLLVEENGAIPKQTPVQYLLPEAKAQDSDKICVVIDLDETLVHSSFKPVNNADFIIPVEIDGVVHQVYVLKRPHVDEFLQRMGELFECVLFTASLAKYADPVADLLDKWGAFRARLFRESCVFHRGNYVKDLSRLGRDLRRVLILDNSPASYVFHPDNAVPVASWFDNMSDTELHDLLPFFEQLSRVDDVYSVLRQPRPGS
Nature of the experiment: inhibitors of CTDSP1, concentration-response testing, biochemical assay, absorbance-based, actives from ultra-high-throughput screening (AID 540297). Format: functional.

The target of experiment [7] is T4, E3 ubiquitin-protein ligase XIAP (Homo sapiens, UniProt P98170). Description: XIAP antagonists, biochemical, IAP family, fluorescence polarization (AID 1018). It counts as functional. On the technique in general: Polarisation of emitted light reports the rotation of a fluorescent probe.
Experiment [8] addresses T4, E3 ubiquitin-protein ligase XIAP. Description: Counter Screen using XIAP-Bir3 for Chemical Antagonists of Bir1/2 domains of IAP-family anti-apoptotic proteins. [Related pubchem assays (depositor defined):AID1018, AID1449, AID1514, AID1638, AID1749, AID1750, AID488957, AID488963]. Background: Counterscreens check selectivity or assay interference.
In a further experiment the target is T5, Hexokinase HKDC1 (Homo sapiens, UniProt Q2TB90).
T5 sequence (Q2TB90 whole entry): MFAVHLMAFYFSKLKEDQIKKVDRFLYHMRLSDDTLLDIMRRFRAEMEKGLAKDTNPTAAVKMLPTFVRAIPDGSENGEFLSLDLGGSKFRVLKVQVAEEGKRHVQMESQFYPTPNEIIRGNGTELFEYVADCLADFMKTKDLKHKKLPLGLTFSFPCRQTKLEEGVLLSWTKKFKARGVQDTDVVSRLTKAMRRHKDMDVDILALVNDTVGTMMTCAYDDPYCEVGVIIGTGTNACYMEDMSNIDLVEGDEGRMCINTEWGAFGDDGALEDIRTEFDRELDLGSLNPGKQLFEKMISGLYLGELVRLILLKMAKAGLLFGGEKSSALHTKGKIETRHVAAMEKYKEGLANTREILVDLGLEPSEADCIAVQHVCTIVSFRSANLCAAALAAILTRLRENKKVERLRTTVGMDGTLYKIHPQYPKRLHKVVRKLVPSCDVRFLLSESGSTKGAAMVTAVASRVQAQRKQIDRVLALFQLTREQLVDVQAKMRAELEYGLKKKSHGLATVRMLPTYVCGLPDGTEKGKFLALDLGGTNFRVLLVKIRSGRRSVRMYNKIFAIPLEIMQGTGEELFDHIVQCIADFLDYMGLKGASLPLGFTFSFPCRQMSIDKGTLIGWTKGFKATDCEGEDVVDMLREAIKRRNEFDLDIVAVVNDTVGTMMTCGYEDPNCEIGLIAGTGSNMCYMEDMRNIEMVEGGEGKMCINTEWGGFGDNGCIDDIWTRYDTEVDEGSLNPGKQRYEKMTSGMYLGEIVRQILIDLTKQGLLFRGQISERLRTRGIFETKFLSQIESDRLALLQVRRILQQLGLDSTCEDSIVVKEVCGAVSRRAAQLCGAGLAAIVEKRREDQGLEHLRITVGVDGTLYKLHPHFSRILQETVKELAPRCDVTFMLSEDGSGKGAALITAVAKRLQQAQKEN
Description: HKDC1 hexokinase inhibitors, dose response, biochemical, W721R variant (AID 504729). It counts as functional.

The target in experiment [9] is Cyclin-dependent kinase 5/CDK5 activator 1 (Homo sapiens, UniProt Q00535). Nature of the experiment: CDK5/p35 kinase inhibitors, dose response, biochemical, cherry-picked samples, set 2 (AID 504545).
The next experiment concerns the target Beta-galactosidase (Escherichia coli, UniProt Q8VNN2). Description: beta-galactosidase enzyme inhibitors and activators, dose response, artefact control for CCR6 antagonist project, biochemical, E. coli enzyme, set 3 (AID 504712). Format: functional.
Experiment [10] can be described thus: cytotoxicity toward NIH3T3 fibroblasts, dose response, counter-screen, cell-based, ATP luminescence, mouse fibroblasts (AID 2010).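 Also: cells exposed to compound for about 90 hours before reading.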 It counts as functional.
The nature of experiment [11]: inhibitors of intracellular T. cruzi replication, confirmation, NIH3T3 host cells, beta-gal luminescence (AID 2044).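 Also: intracellular parasites grown in NIH/3T3 mouse fibroblasts as host cells; luminescent beta-galactosidase reporter signal from transgenic T. cruzi replicating inside host cells; inhibitors lower the luminescence signal.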 It counts as functional, cell-based.

Activity calls are given as the source filed them.

T4 sequence (P98170 whole entry): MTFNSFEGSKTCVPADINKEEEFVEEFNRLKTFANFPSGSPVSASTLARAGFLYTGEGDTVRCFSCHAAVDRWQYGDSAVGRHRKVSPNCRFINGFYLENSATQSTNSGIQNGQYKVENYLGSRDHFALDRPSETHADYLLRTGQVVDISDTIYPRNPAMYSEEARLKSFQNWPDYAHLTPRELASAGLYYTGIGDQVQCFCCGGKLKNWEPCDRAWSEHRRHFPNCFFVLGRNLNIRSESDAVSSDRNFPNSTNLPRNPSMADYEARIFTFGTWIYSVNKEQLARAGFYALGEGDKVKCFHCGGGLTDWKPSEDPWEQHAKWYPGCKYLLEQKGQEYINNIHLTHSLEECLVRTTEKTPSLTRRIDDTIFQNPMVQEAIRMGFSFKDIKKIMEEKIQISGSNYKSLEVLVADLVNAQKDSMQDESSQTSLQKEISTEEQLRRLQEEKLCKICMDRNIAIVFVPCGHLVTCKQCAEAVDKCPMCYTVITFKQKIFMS
DNA dC->dU-editing enzyme APOBEC-3A, sequence (P31941 whole entry, the tested form may be a part): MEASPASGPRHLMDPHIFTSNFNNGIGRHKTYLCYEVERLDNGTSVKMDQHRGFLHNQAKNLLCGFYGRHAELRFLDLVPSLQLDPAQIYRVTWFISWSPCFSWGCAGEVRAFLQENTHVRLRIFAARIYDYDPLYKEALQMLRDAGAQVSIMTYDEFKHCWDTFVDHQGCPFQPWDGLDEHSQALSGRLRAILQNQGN
DNA dC->dU-editing enzyme APOBEC-3G, sequence (Q9HC16 whole entry): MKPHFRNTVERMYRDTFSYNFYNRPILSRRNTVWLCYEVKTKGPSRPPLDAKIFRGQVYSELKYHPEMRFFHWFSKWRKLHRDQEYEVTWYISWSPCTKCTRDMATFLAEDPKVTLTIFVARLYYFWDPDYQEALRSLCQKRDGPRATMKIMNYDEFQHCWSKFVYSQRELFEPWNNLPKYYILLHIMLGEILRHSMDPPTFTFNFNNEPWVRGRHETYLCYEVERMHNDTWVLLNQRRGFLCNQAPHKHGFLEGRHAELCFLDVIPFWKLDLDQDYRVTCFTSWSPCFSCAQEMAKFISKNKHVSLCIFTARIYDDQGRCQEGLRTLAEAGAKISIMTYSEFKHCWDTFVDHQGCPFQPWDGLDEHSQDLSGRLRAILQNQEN
DNA damage-inducible transcript 3 protein, sequence (P35639 whole entry): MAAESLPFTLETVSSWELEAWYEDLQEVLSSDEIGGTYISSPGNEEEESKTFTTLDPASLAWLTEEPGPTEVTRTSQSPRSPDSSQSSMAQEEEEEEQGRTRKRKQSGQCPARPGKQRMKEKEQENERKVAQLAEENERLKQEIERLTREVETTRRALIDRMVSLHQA
SUMO-activating enzyme, sequence (Q9UBE0 whole entry): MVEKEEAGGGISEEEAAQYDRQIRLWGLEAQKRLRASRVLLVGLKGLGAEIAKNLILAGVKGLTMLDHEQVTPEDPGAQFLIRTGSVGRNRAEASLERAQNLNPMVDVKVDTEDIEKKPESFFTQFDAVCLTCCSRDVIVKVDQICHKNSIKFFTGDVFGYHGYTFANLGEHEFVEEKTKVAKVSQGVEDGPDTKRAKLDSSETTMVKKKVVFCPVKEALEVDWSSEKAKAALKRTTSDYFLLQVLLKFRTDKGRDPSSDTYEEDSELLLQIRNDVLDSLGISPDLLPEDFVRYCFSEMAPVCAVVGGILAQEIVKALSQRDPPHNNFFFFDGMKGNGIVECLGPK
SUMO-activating enzyme, sequence (Q9UBT2 whole entry): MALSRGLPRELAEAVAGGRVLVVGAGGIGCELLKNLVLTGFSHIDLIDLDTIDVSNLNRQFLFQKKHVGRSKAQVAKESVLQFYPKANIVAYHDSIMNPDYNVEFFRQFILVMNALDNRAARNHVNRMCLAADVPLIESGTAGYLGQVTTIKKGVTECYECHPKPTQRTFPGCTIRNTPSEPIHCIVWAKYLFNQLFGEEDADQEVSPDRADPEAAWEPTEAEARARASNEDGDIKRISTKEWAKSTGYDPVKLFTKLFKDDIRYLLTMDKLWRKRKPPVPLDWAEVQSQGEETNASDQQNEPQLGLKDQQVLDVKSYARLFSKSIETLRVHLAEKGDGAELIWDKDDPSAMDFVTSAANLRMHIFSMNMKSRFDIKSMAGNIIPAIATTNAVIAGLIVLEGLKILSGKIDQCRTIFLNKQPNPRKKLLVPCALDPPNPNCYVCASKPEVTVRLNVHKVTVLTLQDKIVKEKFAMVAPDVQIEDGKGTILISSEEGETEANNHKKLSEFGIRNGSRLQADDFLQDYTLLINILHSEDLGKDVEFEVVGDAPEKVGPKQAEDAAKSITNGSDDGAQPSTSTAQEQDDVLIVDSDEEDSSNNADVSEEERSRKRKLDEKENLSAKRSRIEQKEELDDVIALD
Beta-galactosidase, sequence (Q8VNN2 whole entry): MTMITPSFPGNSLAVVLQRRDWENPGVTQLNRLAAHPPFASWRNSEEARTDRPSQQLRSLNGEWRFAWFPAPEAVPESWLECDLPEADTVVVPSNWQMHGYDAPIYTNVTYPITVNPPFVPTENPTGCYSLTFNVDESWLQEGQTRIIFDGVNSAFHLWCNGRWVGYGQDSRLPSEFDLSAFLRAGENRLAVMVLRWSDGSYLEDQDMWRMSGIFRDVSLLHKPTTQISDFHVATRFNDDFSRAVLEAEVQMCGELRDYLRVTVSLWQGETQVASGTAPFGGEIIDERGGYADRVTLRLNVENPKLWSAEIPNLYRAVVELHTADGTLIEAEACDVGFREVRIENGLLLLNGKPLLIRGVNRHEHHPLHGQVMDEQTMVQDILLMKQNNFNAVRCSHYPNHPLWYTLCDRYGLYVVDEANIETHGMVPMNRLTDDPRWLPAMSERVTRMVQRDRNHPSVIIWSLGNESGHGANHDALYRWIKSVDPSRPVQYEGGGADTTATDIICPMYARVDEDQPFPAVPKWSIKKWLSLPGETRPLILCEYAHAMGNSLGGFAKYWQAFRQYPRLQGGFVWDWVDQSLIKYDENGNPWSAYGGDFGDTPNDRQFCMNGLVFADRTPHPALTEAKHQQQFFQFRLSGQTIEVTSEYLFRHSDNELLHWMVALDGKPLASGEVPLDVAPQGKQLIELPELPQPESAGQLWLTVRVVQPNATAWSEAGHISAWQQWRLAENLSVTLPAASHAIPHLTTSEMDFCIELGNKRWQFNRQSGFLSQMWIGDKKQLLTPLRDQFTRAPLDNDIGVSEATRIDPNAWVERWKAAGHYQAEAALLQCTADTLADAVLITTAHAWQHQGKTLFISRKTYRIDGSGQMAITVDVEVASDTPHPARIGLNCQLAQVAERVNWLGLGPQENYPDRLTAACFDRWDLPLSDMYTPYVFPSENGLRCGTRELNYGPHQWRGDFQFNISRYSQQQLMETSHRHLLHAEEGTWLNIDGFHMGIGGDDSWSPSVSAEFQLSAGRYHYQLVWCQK
Trypsin, sequence (P00761 whole entry): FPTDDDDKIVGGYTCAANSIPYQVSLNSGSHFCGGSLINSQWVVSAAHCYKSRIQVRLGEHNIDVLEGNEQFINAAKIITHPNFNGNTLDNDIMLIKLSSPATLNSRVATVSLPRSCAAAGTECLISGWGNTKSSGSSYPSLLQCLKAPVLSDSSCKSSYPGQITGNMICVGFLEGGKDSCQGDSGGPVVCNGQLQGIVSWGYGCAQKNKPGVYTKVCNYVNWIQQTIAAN
Cyclin-dependent kinase 5/CDK5 activator 1, sequence (Q00535 whole entry): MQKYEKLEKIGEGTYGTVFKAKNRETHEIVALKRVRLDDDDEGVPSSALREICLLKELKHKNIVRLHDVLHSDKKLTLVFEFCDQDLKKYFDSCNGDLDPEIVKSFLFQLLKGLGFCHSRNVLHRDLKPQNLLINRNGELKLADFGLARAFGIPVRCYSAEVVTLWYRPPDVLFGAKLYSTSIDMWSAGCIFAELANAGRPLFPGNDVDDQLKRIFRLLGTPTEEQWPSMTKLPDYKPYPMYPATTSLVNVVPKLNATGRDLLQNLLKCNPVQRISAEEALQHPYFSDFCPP
Cyclin-dependent kinase 5/CDK5 activator 1, sequence (Q15078 whole entry, further chain): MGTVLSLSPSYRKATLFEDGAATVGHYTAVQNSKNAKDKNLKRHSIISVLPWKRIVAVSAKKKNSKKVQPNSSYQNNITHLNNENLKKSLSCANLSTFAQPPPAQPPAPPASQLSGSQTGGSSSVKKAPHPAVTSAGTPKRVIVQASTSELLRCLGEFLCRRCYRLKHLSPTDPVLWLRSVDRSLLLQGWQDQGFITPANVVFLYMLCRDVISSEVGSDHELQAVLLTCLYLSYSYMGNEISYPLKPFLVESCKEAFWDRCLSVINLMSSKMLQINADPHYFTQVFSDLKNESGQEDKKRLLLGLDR

With `COc1ccc(C2CC(c3ccccc3)=NN2C(=O)CN2CCN(Cc3ccccc3)CC2)cc1` (configuration not stated), at Prothrombin, the IC50 is listed as > 50 µM (not active).

For `Nc1c(C(=O)NCc2ccco2)c2nc3ccccc3nc2n1CCc1ccc(F)cc1`, the IC50 on SUMO-activating enzyme is 34.7 µM (active). With `C#CCOCCOCCOCCNc1nc(N2CCN(C(=O)Cn3cc(CC(C)O)nn3)CC2)nc(N2CCN(C(=O)[C@H](C)n3cc(CCCN=C(N)N)nn3)CC2)n1` (some centres not stated), the IC50 on Prothrombin was 6.8 µM (active). For `CCc1cc(=O)oc2c3c(cc(OCC(=O)NCCCCCC(=O)O)c12)OC(C)(C)CC3`, the AC50 at CAAX prenyl protease 2 is 14 µM (active); on Trypsin, 4.32 µM (active). Further, the IC50 on SUMO-activating enzyme was > 100 µM (inactive). With `Nc1cc(N2CCNCC2)ccc1[N+](=O)[O-]`, the EC50 was 1.19 µM (active) in experiment [1] and 0.19 µM (active) in [2].

For the compound `O=C(NNC(=O)c1cccc2ccccc12)c1ccc(-c2ccccc2)cc1`, in experiment [3], the “Absolute IC50 (CHOP)” value was 10 µM. As for `Nc1nc(CN2CCCCC2)cs1`, the IC50 at Prothrombin was > 50 µM (not active). Regarding `CCOc1ccc(OCCCC(=O)N2CCN(S(=O)(=O)c3ccc(Cl)cc3)CC2)cc1`, the half-inhibitory concentration (IC50) was 2.23 µM (active) in [4], 2.04 µM (active) in experiment [5] and 6.6 µM (active) in [6]. In the case of `Nc1c(NC2CCCCC2)c2ccccc2oc1=O`, the IC50 in experiment [7] is > 100 µM (not active); in experiment [8], > 100 µM (inactive). Taken in the same sequence, the figures for `CCN(CC)c1ccc(S(=O)(=O)N2CCOCC2)cc1NC(=O)CSc1cccc[n+]1[O-]` were > 100 µM (not active) and > 100 µM (inactive). Take `O=Cc1[nH]c2ccccc2c1N(C(=O)CCl)c1ccccc1`: the IC50 on Hexokinase HKDC1 was 43.4 µM (inactive). As for `Cc1ccc(/C=C2\SC(=S)N(CCC(=O)NNS(=O)(=O)c3ccc(C)cc3)C2=O)cc1`, the 50% inhibitory concentration (IC50) in experiment [7] was > 100 µM (not active); in [8] it was > 100 µM (inactive). For the compound `C[C@@H]1CC2(CCCC[N+]2(C)C)C[C@H]1C`, the values for the IC50 in experiment [4] and in experiment [5] were 3.7 µM (active) and 1.61 µM (active), respectively. On to `COc1ccccc1-c1nnc(NC(=O)c2ccc(S(=O)(=O)N(C)Cc3ccccc3)cc2)o1`, for which the “Absolute IC50 (CHOP)” value in experiment [3] was 10 µM. For the compound `Cc1ccc(S(=O)(=O)N2CCC(N3CCN(C)CC3)CC2)cc1Cl`, in experiment [2], the EC50 was 0.94 µM (active). As for `O=C(Cc1ccc(O)cc1)NCCN=C(S)NCc1ccccc1`, the AC50 in [9] was 27.6 µM (active). For the compound `C/C(CC1CC2=C(CC1(C)C)C(C)(C)CCC2)=N\NC(N)=S` (configuration not stated), at Beta-galactosidase, the IC50 was > 66.6 µM (inactive). The values for the EC50 (in [10]; in the experiment “cells”; in experiment [11]) were > 60 µM (not active), 0.139 µM (active) and < 0.1 µM (active), respectively.

In the case of `O=[N+]([O-])c1ccc(/C=N/Nc2nc(N3CCCCC3)nc(N3CCCCC3)n2)o1`, the EC50 in experiment [10] was > 60 µM (inconclusive); in [2], 5.96 µM (active); in experiment [11], 0.225 µM (active).

By IC50 is commonly meant the point on the concentration scale where inhibition reaches its midpoint. As usually defined, the AC50 is the concentration giving half of the maximal activity seen. The EC50 is the concentration needed to bring the measured effect to its halfway point.
